Data: patent US20240148835A1, “TREATING DISORDERS ASSOCIATED WITH DYRK1A DYSFUNCTION” (UNIVERSITY OF FLORIDA RESEARCH FOUNDATION, INCORPORATED, priority 2021, published 2024)
Entries after “also recorded” stand apart in the source; their conditions may differ.

System: Dyrk1a cHets
Test: Chronic (1-3)IGF-1 treatment from P14: cortical and neuronal morphology
Assay type: in vivo, mouse
Procedure: To test whether administration of the active peptide (1-3)IGF-1 restores cortical growth in cHets, we utilized the following paradigm: controls and cHets were treated daily with either (1-3)IGF-1 or vehicle beginning at P14. A behavioral battery began at P56 and daily injections continued until the mice were sacrificed for downstream analysis (FIG. 17A). […] As the impact of loss-of-function Dyrk1a mutations on spine density has not been investigated in vivo, we measured spine density on primary neurites of layer V pyramidal neurons in the mPFC. […] Together, these findings indicate that chronic (1-3)IGF-1 treatment beginning at P14 rescues microcephaly and neuronal undergrowth in Dyrk1a cHets.
(1-3)IGF-1 was acquired from VWR/Bachem (catalog #H-2468.1000) and dissolved in saline with 0.01% BSA fresh every day. Intraperitoneal injections of 10 mg kg′ (1-3)IGF-1 or vehicle were delivered daily at 8 a.m. starting on P14 and ending on P85. […] The S6K1 inhibitor PF-4708671 was acquired from Medkoo Biosciences (#406432) dissolved in 10% DMSO, 10% tween 80 and 80% water. (1-3)IGF-1 (10 mg kg′) and PF-4708671 (50 mg kg^−1) or vehicle were injected subcutaneously into pups from P0 to P7. Rapamycin was acquired from LC laboratories (R-5000) and dissolved in 4% ethanol, 5% tween-80, and 5% PEG400 in PBS. (1-3)IGF-1 (10 mg kg′) and Rapamycin (1 mg kg′) or vehicle were injected subcutaneously into pups from P0 to P7. SB216763 was acquired from TOCRIS (#1616) and dissolved in 5% DMSO and 0.9% saline in dH20. SB216763 (0.5 mg kg′) was injected subcutaneously into pups from P0 to P7.
Adult animals were perfused with 4% PFA and pups underwent rapid decapitation and dissection. After 18 hours post-fixation in 4% PFA, brains were incubated in a 20% sucrose/PBS solution at 4° C. for 2-3 days and embedded in Tissue-Tek OCT compound (Sakura). 40 μm sections were collected on Superfrost/Plus slides and stained. DAPI was used for nuclear labeling (Invitrogen, catalog #D3571). Slides were mounted with Vectashield HardSet and images were obtained with an Olympus VS120 microscope and processed using the VS-DESKTOP software (Olympus) or ImageJ (NIH). Ventricle size was analyzed by drawing an ROI around the entire ventricle in 2-3 plane-matched sections per animal.
Following rapid decapitation, brains were removed and processed using the FD Rapid Golgistain™ kit (FD Neurotechnologies, Columbia MD) following the manufacturer's instructions. A Leica vibrating microtome was used to cut 100 μm coronal sections in 6% sucrose in PBS. The sections were then mounted on gelatin-coated slides and stained using the FD Rapid Golgistain™ kit. Individual neurons were imaged using a Leica DM5500B 20× objective and reconstructed using Neuromantic software. After reconstruction, Sholl analysis was performed in ImageJ using the Simple Neurite Tracer. Primary neurites were selected for spine density analysis where the number of spines was counted and divided by the length of the neurite fragment. Soma size was measured using the ROI freehand tool on imageJ (NIH).

In the case of “(1-3)IGF-1: a tripeptide cleaved from the N-terminus of IGF-1; acquired from VWR/Bachem, CAS No. 32302-76-4 (GPE; Insulin-like growth factor 1; UniProt P05019 49-51, looked up, fragment)”, the “neuronal complexity of layer V pyramidal neurons in the mPFC (Sholl analysis)” value (daily from P14, adult cHets) is reported as “restored the neuronal complexity; also recorded: rescued”, the “soma size of layer V pyramidal neurons” value (daily from P14, adult cHets) is reported as “restored the significantly smaller neuronal soma size; also recorded: rescued” and the “ventricle area in cHets” value (daily from P14, adult cHets) is reported as “normalized; also recorded: rescued”. The “spine density of layer V pyramidal neurons in the mPFC” value (daily from P14, adult cHets, primary neurites) was “significantly increased; also recorded: partially restored”, the “cortex mass (cortical growth) of cHets” value (daily i.p. 10 mg kg from P14, adult cHets) was “rescued cortical growth in cHets; also recorded: restored” and the “cortex mass (cortical growth) of controls” value (daily i.p. 10 mg kg from P14, controls) was “no effect on controls”.
